From article PMC11270798, “N ^ α -acetyl-L-ornithine deacetylase from Escherichia coli and a ninhydrin-based assay to enable inhibitor identification” (Frontiers in Chemistry, 2024)

Target: T1, EcArgE (Escherichia coli, UniProt P23908)
T1 construct: The open reading frame (ORF) of the full-length ArgE protein from E. coli was amplified; made in house; host or cells: E. coli
Assay: Ninhydrin-based ArgE enzyme assay (discontinuous, 570 nm)
Type: biochemical
Settings: not given
Procedure: A discontinuous assay was performed utilizing a Techne PCR Thermal Cycler System and assays were run with a total reaction volume of 100 µL and a final enzyme concentration of 10 nM. […] The selected inhibitors were dissolved in 50 mM KPi buffer, pH: 7.5 at 30°C and screened at 100 μM or other concentrations, depending on the type of experiment, followed by the EcArgE enzyme and incubated for 10 min. […] A 2% ninhydrin solution (50 μL) was added, and the mixture was mixed by pipetting while cooled to 0°C. The reaction was then heated to 100°C for 10 min. The absorbance of an 80 μL aliquot was recorded at 570 nm on a BioTek Synergy 2 microplate reader. The IC50 values and kinetic constants were calculated using GraphPad Prism using non-linear regression and the Michaelis-Menten equation.

| Molecule | IC50 [µM] |
| --- | --- |
| O=C(O)c1ccc(B(O)O)cc1 [Entry 5, 4-carboxyphenylboronic acid] | 54.1 |
| CCN(CC)c1ccc(B(O)O)cc1 [Entry 4, 4-(diethylamino)phenylboronic acid] | 50.1 |

Same assay, conditions: 100 μM inhibitor, ninhydrin assay, substrate 3

| Molecule | inhibition at 100 µM [%] | % Inhibition at 100 μM |
| --- | --- | --- |
| CC(=O)c1ccc(B(O)O)cc1 [Entry 12] | 15.8 ± 1.9 | – |
| OB(O)c1ccccc1 [Entry 3, phenylboronic acid] | 41.9 ± 1.8 | – |
| O=C(O)c1ccc([N+](=O)[O-])cc1 [Entry 26, 4-nitrobenzoic acid] | 57.9 ± 7.1 | – |
| OB(O)c1ccc2ccccc2c1 [Entry 24] | 16.2 ± 6.1 | – |
| OB(O)c1ccc(OC(F)(F)F)cc1 [Entry 10] | 25.5 ± 2.4 | – |
| O=C(O)c1ccc(B(O)O)cc1 [Entry 5, 4-carboxyphenylboronic acid] | 80.4 ± 3.7 | – |
| CCN(CC)c1ccc(B(O)O)cc1 [Entry 4, 4-(diethylamino)phenylboronic acid] | 91.5 ± 1.5 | – |
| OB(O)c1ccc(Oc2ccccc2)cc1 [Entry 15] | 48.8 ± 2.7 | – |
| CCN(CC)c1ccc(C(=O)O)cc1 [Entry 27] | 53.4 ± 2.6 | – |
| CS(=O)(=O)Nc1ccc(B(O)O)cc1 [Entry 14] | 23.5 ± 6.9 | – |
| OB(O)c1ccc(Oc2ccc(F)cc2)cc1 [Entry 18] | 9.3 ± 1.8 | – |
| CN(C)c1ccc(C(=O)O)cc1 [Entry 28] | 41 ± 10.8 | – |
| OB(O)c1ccc(Oc2ccc(OC(F)(F)F)cc2)cc1 [Entry 17] | 36 ± 5.8 | – |
| C[C@H](CS)C(=O)N1CCC[C@H]1C(=O)O [Entry 1, captopril, reference compound] | 57.8 ± 0.04 | – |
| OB(O)c1cccc(OCc2ccccc2)c1 [Entry 21] | 40.3 ± 6.8 | – |
| OB(O)c1ccccc1C(F)(F)F [Entry 23] | 40.6 ± 9 | – |
| OB(O)c1ccc(Oc2ccc(Cl)cc2)cc1 [Entry 16] | 55.7 ± 4.9 | – |
| OB(O)c1cc(C(F)(F)F)cc(C(F)(F)F)c1 [Entry 22] | 0 | lacked activity |
| OB(O)c1ccc(F)cc1 [Entry 11] | 8.1 ± 4.1 | – |
| OB(O)c1ccc(O)cc1 [Entry 9] | 29.8 ± 11.2 | – |
| OB(O)c1cccc(Cl)c1 [Entry 19] | 19.7 ± 3 | – |
| N#Cc1ccc(B(O)O)cc1 [Entry 8] | 48 ± 2.6 | – |
| OB(O)c1ccc(Cl)cc1 [Entry 6, 4-chlorophenylboronic acid] | 68.7 ± 1.2 | – |
| Cc1ccc(B(O)O)cc1 [Entry 7] | 59 ± 9.4 | – |
| CC(=O)Nc1ccc(B(O)O)cc1 [Entry 13] | 24 ± 6.9 | – |
| OB(O)c1ccc2c(c1)OCO2 [Entry 20] | 47 ± 2.7 | – |

Same assay, conditions: ArgE

| Molecule | mode of inhibition |
| --- | --- |
| C[C@H](CS)C(=O)N1CCC[C@H]1C(=O)O [Entry 1, captopril, reference compound] | […] |

System: DapE
Assay: not given
Parameters: method as in Gillner et al., 2009
Settings: ref Gillner et al., 2009; cited from earlier work

| Molecule | IC50 [µM] | mode of inhibition |
| --- | --- | --- |
| C[C@H](CS)C(=O)N1CCC[C@H]1C(=O)O [Entry 1, captopril, reference compound] | […] | […] |

Target: T2, ArgE (Escherichia coli, UniProt P23908)
Assay: biochemical
Settings: read-out: % inhibition at 2 mM

| Molecule | inhibition at 2000 µM [%] |
| --- | --- |
| NC(CO)(CO)CO [Tris] | 21.2 |

Target: T2, ArgE
Assay: Cleavage of alternative substrates by ArgE
Type: biochemical
Parameters: The open reading frame (ORF) of the full-length ArgE protein from E. coli was amplified; made in house; host or cells: E. coli
Settings: monitoring at 225 nm
Text: Previously, Blanchard developed a simple, continuous 214 nm assay ([Javid-Majd and Blanchard, 2000]) using the endogenous substrate NAO to test potential inhibitors of ArgE. The 214 nm assay is a simple and reproducible assay but it is not useful for inhibitors that absorb strongly in the UV region, therefore excluding many drug-like molecules, as high background UV absorption would lead to greater background and obscure the actual enzyme cleavage data. […] As an alternative assay, we explored another potential substrate, p-nitrophenyl acetate, in the hope that ArgE would cleave the acetate to yield the product p-nitrophenol, but we observed no cleavage based on monitoring at 405 nm ([Means and Bender, 1975]). We also attempted the use of the DapE alternate substrate N ^6-methyl-N-succinyl-L,L-diaminopimelic acid (N ^6-methyl-SDAP) ([Heath et al., 2018]) because of the similarities between the ArgE and DapE active site structure but observed no cleavage of this synthetic substrate at 225 nm. We therefore designed a ninhydrin-based assay similar to our DapE ninhydrin-based assay ([Heath et al., 2018]) to enable the analysis of more structurally diverse inhibitors.

| Molecule | cleavage by ArgE |
| --- | --- |
| CN[C@@H](CCC[C@H](NC(=O)CCC(=O)O)C(=O)O)C(=O)O [N ^6-methyl-SDAP, N ^6-methyl-N-succinyl-L,L-diaminopimelic acid] | no cleavage |

Same assay, conditions: monitoring at 405 nm

| Molecule | cleavage by ArgE |
| --- | --- |
| CC(=O)Oc1ccc([N+](=O)[O-])cc1 [p-nitrophenyl acetate] | no cleavage |

Target: the molecule itself
Assay: crystal structure; EcArgE crystallised by sitting-drop vapor diffusion at 16°C; mono-Zn form from 1 M ammonium citrate, 0.1 M Bis-Tris propane pH 7.0; di-Zn form from 0.2 M lithium sulfate, 30% PEG 3350, 0.1 M Tris pH 8.5; dimer seen in the crystals
Settings: not given

| Molecule | binding result |
| --- | --- |
| N-alpha-acetyl-L-ornithine deacetylase (ArgE) from Escherichia coli (enzyme, E. coli, UniProt P23908 1-383, looked up, N-alpha-acetyl-L-ornithine deacetylase (ArgE), Escherichia coli, full-length ORF amplified from genomic DNA; catalytic domain residues 1-179 and 305-383, dimerization domain residues 180-304; Crystallised in a mono-zinc form (PDB 7RSF) and a di-zinc form (PDB 8UW6); same protein and purification for both; Three N-terminal residues are not modelled in the structures; also called EcArgE; E. coli …) MKNKLPPFIEIYRALIATPSISATEEALDQSNADLITLLADWFKDLGFNVEVQPVPGTRNKFNMLASIGQGAGGLLLAGHTDTVPFDDGRWTRDPFTLTEHDGKLYGLGTADMKGFFAFILDALRDVDVTKLKKPLYILATADEETSMAGARYFAETTALRPDCAIIGEPTSLQPVRAHKGHISNAIRIQGQSGHSSDPARGVNAIELMHDAIGHILQLRDNLKERYHYEAFTVPYPTLNLGHIHGGDASNRICACCELHMDIRPLPGMTLNELNGLLNDALAPVSERWPGRLTVDELHPPIPGYECPPNHQLVEVVEKLLGAKTEVVNYCTEAPFIQTLCPTLVLGPGSINQAHQPDEYLETRFIKPTRELITQVIHHFCWH | binds |
